Source: article PMC3151326 (2011)

Molecular target: PDE5 (Homo sapiens, UniProt O76074)
Assay: cGMP PDE activity
Type: biochemical

`CSc1ccc(/C=C2/C(C)=C(CC(=O)O)c3cc(F)ccc32)cc1` [SS, sulindac sulfide] showed an IC50 of ~100 µM.
